The values below come from ChEMBL document CHEMBL1955794, “β-Carboline alkaloids from the leaves of Trigonostemon lii Y.T. Chang” (Bioorg Med Chem Lett, 2012).

The structures appear in SMILES notation. Where only a bound is given, the exact number is not on record here.

Common to all, as to type: functional, cell-based
One assay concerns HL-60. Description: Cytotoxicity against human HL60 cells after 48 hrs by MTT assay. To be noted: HL-60, 48 h.
The test system of a further assay is SMMC-7721. Put plainly: Cytotoxicity against human SMMC7721 cells after 48 hrs by MTT assay. The note with it: SMMC-7721, 48 h. (In general: Tetrazolium assays rely on reduction of a dye to a coloured formazan, in cell work by metabolically active cells.)
The subject of another assay is SW480. Description: Cytotoxicity against human SW480 cells after 48 hrs by MTT assay. The note with it: SW480, 48 h.
The subject of a further assay is A549. Put plainly: Cytotoxicity against human A549 cells after 48 hrs by MTT assay. To be noted: A549, 48 h.
A further assay relates to MCF7. Put plainly: Cytotoxicity against human MCF7 cells after 48 hrs by MTT assay. To be noted: MCF7, 48 h.

In the case of `COc1ccc2c(C3=NCCc4c3[nH]c3ccccc43)ccnc2c1` [TRIGONOSTEMONINE E], the concentration for half-maximal inhibition (IC50) in the assay with HL-60, in the assay on SMMC-7721, in the assay on SW480, in the assay on A549 and in the assay on MCF7 was over 40 µM throughout.

On to `COc1ccc2c(c1)[nH]c1c(-c3ccnc4ccccc34)nc(O)cc12` [TRIGONOSTEMINE E], for which the half-maximal inhibitory concentration (IC50) in the assay with HL-60 is 18.8 µM; with SMMC-7721, 23.5 µM; in the assay with SW480, 39.1 µM; in the assay on A549, 24.3 µM; in the assay with MCF7, 14.4 µM.

In the case of `COc1ccc2c(c1)[nH]c1c(-c3ccnc4ccccc34)nccc12` [TRIGONOSTEMONINE C], the half-inhibitory concentration (IC50) with HL-60 is 13.4 µM; with SMMC-7721, 15.5 µM; with SW480 it was over 40 µM; in the assay with A549, 23.1 µM; in the assay with MCF7, over 40 µM.

Take `O=C1NCCc2c1[nH]c1ccccc21`: the IC50 in the assay with HL-60, in the assay with SMMC-7721, in the assay on SW480, in the assay on A549 and in the assay on MCF7 was over 40 µM throughout.

In the case of `COc1ccc2c(c1)[nH]c1c(C(C)=O)nccc12` [ARENARINE C], the half-inhibitory concentration (IC50) in the assay with HL-60, with SMMC-7721, with SW480, in the assay with A549 and in the assay with MCF7 was over 40 µM each time.

For the molecule `COC(=O)c1nccc2c1[nH]c1cc(OC)ccc12` [HARMIC ACID METHYL ESTER], the half-inhibitory concentration (IC50) in the assay with HL-60, in the assay on SMMC-7721, with SW480, with A549 and in the assay on MCF7 was over 40 µM each time.

As for `COc1ccc2c(C(=O)c3nccc4c3[nH]c3ccccc34)c(O)[nH]c2c1` [TRIGONOSTEMINE D], the half-maximal inhibitory concentration (IC50) in the assay with HL-60 was over 40 µM; with SMMC-7721 it was over 40 µM; in the assay on SW480, over 40 µM; with A549, over 40 µM; with MCF7, 13.8 µM.

On to `COc1ccc2c(c1)[nH]c1c(C(=O)c3c[nH]c4ccccc34)nccc12` [TRIGONOSTEMINE A], for which the IC50 in the assay on HL-60 stood at 13.4 µM; in the assay on SMMC-7721, 22.4 µM; in the assay on SW480, 4.86 µM; in the assay on A549, 23.9 µM; with MCF7 it was 5.3 µM.

As for `COc1ccc2c(-c3nccc4c3[nH]c3ccccc34)ccnc2c1` [TRIGONOSTEMONINE D], the IC50 in the assay on HL-60, with SMMC-7721, with SW480, in the assay with A549 and in the assay on MCF7 was over 40 µM throughout.

With `COc1ccc2c3c([nH]c2c1)-c1nc2ccccc2c(=O)n1CC3`, the concentration for half-maximal inhibition (IC50) with HL-60, with SMMC-7721, in the assay with SW480, in the assay with A549 and in the assay on MCF7 was over 40 µM throughout.

Turning to `COc1ccc2c(=O)n3c(nc2c1)-c1[nH]c2ccccc2c1CC3`, the half-inhibitory concentration (IC50) in the assay on HL-60, in the assay with SMMC-7721, in the assay with SW480, with A549 and with MCF7 was over 40 µM in each case.

In the case of `COc1ccc2c(-c3nc(O)cc4c3[nH]c3ccccc34)ccnc2c1` [TRIGONOSTEMINE F], the IC50 with HL-60, in the assay on SMMC-7721, with SW480, with A549 and in the assay on MCF7 was over 40 µM in each case.

With `COc1ccc2c(c1)[nH]c1c(C(=O)c3c(O)[nH]c4ccccc34)nccc12` [TRIGONOSTEMINE C], the half-inhibitory concentration (IC50) is over 40 µM in the assay with HL-60; 16 µM in the assay with SMMC-7721; 17.2 µM with SW480; 18.5 µM in the assay with A549; 16.1 µM in the assay on MCF7.

As for `COc1ccc2c(C(=O)c3nccc4c3[nH]c3cc(OC)ccc34)c[nH]c2c1` [TRIGONOSTEMINE B], the IC50 in the assay on HL-60 is over 40 µM; in the assay with SMMC-7721 it was 4.78 µM; with SW480, 3.55 µM; in the assay on A549 it was 8.67 µM; in the assay with MCF7 it was 2.98 µM.

Broadly, the IC50 is the concentration needed to halve the response being measured. A higher IC50 goes with weaker potency in that assay.
